From PMC5478822, “In Vitro Anticancer Effect of Gedunin on Human Teratocarcinomal (NTERA-2) Cancer Stem-Like Cells” (BioMed Research International, 2017)
In brackets after ≈: the same amount, converted by molar mass. Where two headings read alike, the source gives them in different places.

Legend:
NTERA-2 cells [1] = experiment: Sulforhodamine B (SRB) antiproliferative assay; type: cell-based; conditions: Homo sapiens
Protocol: The NTERA-2 cells were cultured using Dulbecco's Modified Eagle's Medium (DMEM), supplemented with 10% fetal bovine serum (FBS), 50 IU/mL penicillin, and 50 μg/mL streptomycin. Cells were incubated at 37°C with 5% CO2 and 95% humidity.
Prior to the SRB assay, NTERA-2 cells were grown in a 75 cm[…] flasks. Upon confluency, cells were trypsinized and seeded into 96-well plates (5 × 10^3 cells/well). After 24 h incubation, cells were treated with various concentrations (3.125, 6.25, 12.5, 25, and 50 μg/mL) of gedunin and retinoic acid (positive control) dissolved in 0.1% dimethyl sulfoxide (DMSO) and incubated for 24, 48, and 72 h. Negative control for the experiment was 0.1% DMSO in DMEM medium. Then the cells were fixed with 20 μL of 50% (trichloroacetic acid) TCA and incubated for further 1 h at 4°C. After incubation, cells were washed five times with tap water and stained with 50 μL of 0.4% (w/v) SRB solution. After 20 min of incubation, SRB solution was poured off and unbound dye was removed by washing five times with 1% acetic acid. Bound SRB dye was then solubilized by adding 100 μL of Tris base solution. The plates were shaken for 1 h and absorbance was read at 540 nm OD.

[2] = test system: peripheral blood mononuclear cells; experiment: WST-1 cell viability assay; type: cell-based, human; conditions: for IC50: Homo sapiens, PBMC, PBMCs, WST-1 assay; for Cytotoxic effect on normal peripheral blood mononuclear cells: WST-1 cell viability assay
Protocol: Cytotoxic effects of gedunin and positive control (retinoic acid) on normal human cells were evaluated by using human peripheral blood mononuclear cells. Collected blood was diluted with Hank's Buffered Salt Solution (HBSS) and layered onto Histopaque 1077. Blood was then centrifuged at 1000 rpm for 10 min. After centrifugation, opaque interface which contains mononuclear cells was seperated and washed with phosphate buffered saline (PBS). Cells were then counted and cultured (2 × 10^5 cells/mL) in RPMI medium supplemented with 10% fetal bovine serum (FBS), 50 IU/mL penicillin, and 50 μg/mL streptomycin in 24-well plates. Cells were then treated with different concentrations of gedunin and retinoic acid dissolved in 0.1% DMSO (3.125, 6.25, 12.5, 25, and 50 μg/mL) and incubated for 24, 48, and 72 h. Negative control for the experiment was 0.1% DMSO in RPMI medium. WST-1 cell proliferation assay was then carried out according to manufacturer's instructions to determine the cytotoxic effects.

NTERA-2 cells [3] = experiment: Acridine orange/ethidium bromide (AO/EB) staining; type: cell-based, human; conditions: NTERA-2 cells, 2.5, 5 and 10 μg/mL, 24 h
Protocol: NTERA-2 cells (2.5 × 10^4 cells/mL) were cultured on cell culture treated coverslips and incubated for 24 h. Subsequently, cells were exposed to different concentrations of gedunin dissolved in 0.1% DMSO (2.5, 5, and 10 μg/mL) and incubated for 24 h. Negative control for the experiment was 0.1% DMSO in DMEM medium. After incubation, cells were fixed using 4% formaldehyde in the dark for 10 min. Cells were then washed with PBS and stained with ethidium bromide (100 μg/mL) and acridine orange (100 μg/mL) solutions (1 : 1 v/v). Excess dye was then washed off with PBS and cell morphology was observed using a fluorescence microscope (BX51 TRF, Olympus Corporation, Tokyo, Japan).

[4] = test system: caspase 3/7 in NTERA-2 cells; experiment: Caspase 3/7 assay; type: cell-based, human; conditions: 24 h
Protocol: NTERA-2 cells (2.5 × 10^4 cells/mL) were cultured in 96-well cell culture plates and incubated for 24 h. After incubation, cells were treated with gedunin dissolved in 0.1% DMSO (2.5, 5, and 10 μg/mL) and incubated for further 24 h. Negative control for the experiment was 0.1% DMSO in DMEM medium. Caspase 3/7 reagent (100 μL) was then added to each well and incubated for 1 h in dark at 37°C. Luminescence of each well was measured by a plate reader.

NTERA-2 cells [5] = experiment: DNA fragmentation analysis; type: cell-based, human; conditions: 48 and 72 h, gedunin 5, 10 and 15 μg/mL
Protocol: DNA fragmentation analysis was carried out according to previously described methods. NTERA-2 cells (2.5 × 10^4 cells/mL) were grown in cell culture flasks and incubated for 24 h. After incubation, flasks were treated with gedunin dissolved in 0.1% DMSO (5, 10, and 15 μg/mL) and further incubated for 48 and 72 h. Negative control for the experiment was 0.1% DMSO in DMEM medium. At the end of the incubation period, cells were trypsinized and cell pellets were obtained. Cell pellets were then incubated for 60 min at 50°C in a 100 μL of lysis buffer (100 mM Tris–HCl, pH 8, 100 mM NaCl, and 10 mM EDTA). Proteinase K (10 μL, 20 mg/mL) was then added to cell lysates and incubated for 30 min at 50°C. After adding 3 μL of 10 mg/mL RNase, the mixture was incubated for 2 h at 50°C. DNA was extracted in phenol chloroform-isoamyl alcohol and 1 μg of isolated DNA from each sample was subjected to 2.0% of agarose gel electrophoresis and visualized under UV using a gel-doc system (Quantum-ST4 1100/20 M).

NTERA-2 cells [6] = experiment: TUNEL assay; type: cell-based, human; conditions: NTERA-2 cells, 2.5, 5 and 10 μg/mL, 24 h
Protocol: Terminal deoxynucleotidyl transferase-mediated dUTP-biotin nick-end labeling (TUNEL) staining was carried out to confirm in situ chromatin fragmentation. Cells cultured on coverslips (2.5 × 10^4 cells/mL) were treated with different concentrations of gedunin dissolved in 0.1% DMSO (2.5, 5, and 10 μg/mL) and incubated for 24 h. Negative control for the experiment was 0.1% DMSO in DMEM medium. TUNEL staining was carried out according to manufacturer's instructions. Briefly, cells were fixed with 4% formaldehyde and permeabilized with 0.2% Triton X-100. Equilibration buffer (100 μL) and TdT reaction mix to label DNA were added and incubated for further 60 min in a humidified chamber. Then coverslips were immersed in 2x SSC buffer for 15 min followed by immersing in 0.3% H2O2 for 3 min. Finally, labeled fragments were incubated with streptavidin horseradish peroxidase and visualized after diaminobenzidine (DAB) color development where dark brown spots confirmed apoptosis.

NTERA-2 cells [7] = experiment: Nitrobluetetrazolium reactive oxygen species (ROS) assay; type: cell-based, human; conditions: 24 h after incubation, 2.5, 5 and 10 μg/mL
Protocol: ROS measurement in gedunin treated NTERA-2 cells was carried out using previously described methods. Cells (2 × 10^3) were cultured in 96-well cell culture plates and incubated for 24 h. After incubation cells were treated with gedunin (2.5, 5, and 10 μg/mL) and incubated for further 24 h. Cells were then incubated with nitrobluetetrazolium (1 mg/mL) for 1 h at 37°C. After the incubation 100 μL of DMSO was added to solubilize blue formazan, plates were shaken for 10 min at room temperature, and the absorbance was read at 620 nm.

p53 = experiment: RT-qPCR gene expression, p53; type: cell-based, human; conditions: NTERA-2 cells, 5 and 10 μg/mL, 24 h
Protocol: (§1) NTERA-2 (2.5 × 10^5 cells/mL) cells were cultured in cell culture flasks and treated with gedunin dissolved in 0.1% DMSO (5 and 10 μg/mL) for 24 h. Negative control for the experiment was 0.1% DMSO in DMEM medium. Following incubation, total RNA was extracted with TRIzol® reagent according to the manufacturer's instructions. For reverse transcription, extracted RNA (2 μg) was mixed with 50 ng of random primers and the total volume was made up to 13.5 μL with ultrapure water. Resulting mixture was incubated at 70°C for 5 min and, after incubation, it was kept on ice for 2 min. Complementary DNA (cDNA) was then synthesized by adding 2 μL from the transcription mixture, 5 μL of 5x MMLV-buffer, 5 μL of 10 mM deoxynucleotide mixture, 25 units of RNasin, and 200 units of MMLV-reverse transcriptase in a reaction mixture of 25 μL adjusted by adding ultrapure water and incubated at 37°C for 60 min. Real-time PCR was carried out in Stratagene Mx3000P using a master mix containing SYBR green (MESA Green qPCR Master Mix Plus for SYBR Assay). Primers used for real-time PCR are given in Table 1 and glyceraldehyde-3-phosphate dehydrogenase (GAPDH) was used as the internal housekeeping gene. […] Results of real-time PCR were analysed using the formula 2^−ΔΔCt.

Bax = experiment: RT-qPCR gene expression, Bax; type: cell-based, human; conditions: NTERA-2 cells, both doses tested, 24 h
Protocol: as §1

survivin = experiment: RT-qPCR gene expression, survivin; type: cell-based, human; conditions: NTERA-2 cells, both doses tested, 24 h
Protocol: as §1

HSP90 = experiment: RT-qPCR gene expression, HSP90; type: cell-based, human; conditions: NTERA-2 cells, 5 and 10 μg/mL, 24 h
Protocol: as §1

Cdc37 = experiment: RT-qPCR gene expression, Cdc37; type: cell-based, human; conditions: NTERA-2 cells, 5 and 10 μg/mL, 24 h
Protocol: as §1

ErbB2 = experiment: RT-qPCR gene expression, ErbB2; type: cell-based, human; conditions: NTERA-2 cells, 24 h incubation
Protocol: as §1

HSF1 = experiment: RT-qPCR gene expression, HSF1; type: cell-based, human; conditions: NTERA-2 cells, 24 h incubation
Protocol: as §1

AKT = experiment: RT-qPCR gene expression, AKT; type: cell-based, human; conditions: NTERA-2 cells, 24 h incubation
Protocol: as §1

[8] = NTERA2, 24 h incubation, read-out: IC50 in NTERA-2 cells, 24 h
[9] = NTERA2, 48 h incubation, read-out: IC50 in NTERA-2 cells, 48 h
[10] = NTERA2, 72 h incubation, read-out: IC50 in NTERA-2 cells, 72 h
[11] = 24 h incubation, read-out: IC50 in peripheral blood mononuclear cells, 24 h
[12] = 48 h incubation, read-out: IC50 in peripheral blood mononuclear cells, 48 h
[13] = 72 h incubation, read-out: IC50 in peripheral blood mononuclear cells, 72 h

## CC(=O)O[C@@H]1C[C@H]2C(C)(C)C(=O)C=C[C@]2(C)[C@H]2CC[C@@]3(C)[C@H](c4ccoc4)OC(=O)[C@H]4O[C@]43[C@@]21C [Gedunin]
NTERA-2 cells [1]; [8]
  IC50: 14.6 µg/mL (≈ 30.2 µM)
NTERA-2 cells [1]; [9]
  IC50: 8.49 µg/mL (≈ 17.6 µM)
NTERA-2 cells [1]; [10]
  IC50: 6.55 µg/mL (≈ 13.6 µM)
[2]; [11]
  IC50: > 100 µg/mL
[2]; [12]
  IC50: > 100 µg/mL
[2]; [13]
  IC50: > 100 µg/mL
[2]
  Cytotoxic effect on normal peripheral blood mononuclear cells: minimal effect on PBMCs
[2]; listed as gedunin
  Cytotoxic effect on normal peripheral blood mononuclear cells: not significant
NTERA-2 cells [3]
  Morphological changes after AO/EB staining: morphological changes of apoptosis
[4]; 2.5 μg/mL
  Fold change in caspase 3/7 activity: 1.08 fold
[4]; 5 μg/mL
  Fold change in caspase 3/7 activity: 1.2 fold
[4]; 10 μg/mL
  Fold change in caspase 3/7 activity: 1.41 fold
NTERA-2 cells [5]
  DNA fragmentation (laddering pattern): smeared laddering pattern of DNA was observed
NTERA-2 cells [6]
  TUNEL-positive nuclei: increase in the number of TUNEL-positive nuclei
NTERA-2 cells [7]
  ROS production: increase in ROS production
p53
  Expression of p53 (real-time PCR): upregulation of p53
Bax
  Expression of Bax (real-time PCR): Upregulation of Bax
survivin
  Expression of survivin (real-time PCR): downregulation
HSP90
  Expression of HSP90 (real-time PCR): downregulation
Cdc37
  Expression of Cdc37 (real-time PCR): downregulation
ErbB2
  Expression of ErbB2 (real-time PCR): Significant downregulation
HSF1
  Expression of HSF1 (real-time PCR): Significant downregulation
AKT
  Expression of AKT (real-time PCR): Significant downregulation

## CC1=C(/C=C/C(C)=C/C=C/C(C)=C/C(=O)O)C(C)(C)CCC1 [Retinoic acid, retinoic acid, reference compound]
NTERA-2 cells [1]; [8]
  IC50: 14.4 µg/mL (≈ 47.8 µM)
NTERA-2 cells [1]; [9]
  IC50: 9.17 µg/mL (≈ 30.5 µM)
NTERA-2 cells [1]; [10]
  IC50: 6.87 µg/mL (≈ 22.9 µM)
[2]; [11]
  IC50: > 100 µg/mL
[2]; [12]
  IC50: > 100 µg/mL
[2]; [13]
  IC50: > 100 µg/mL
NTERA-2 cells [5]
  DNA fragmentation (laddering pattern): smeared laddering pattern of DNA was observed

## CC1=CC(=O)C(C(C)C)=CC1=O [thymoquinone]
NTERA-2 cells [5]
  DNA fragmentation (laddering pattern): smeared laddering pattern of DNA was observed
